Legend:
Experiment in all cases: Test G preemergence/postemergence greenhouse plant response rating 0 to 100
[1] = test system: alfalfa; assay type: in vivo, Medicago ativa; details: 0 to 100 scale
Excerpt: (§1) Seeds, rhizomes, or plant parts of alfalfa (Medicago ativa), annual bluegrass (Poa annua), bermudagrass (Cynodon dactylon), broadleaf signalgrass (Brachiaria plantaginea), common purslane (Portulaca oleracea), common ragweed (Ambrosia elatior), […] (Paspalum dilatatum), goosegrass (Eleusine indica), guineagrass (Panicum maximum), […] exaltata), johnsongrass (Sorghum halepense), large crabgrass (Digitaria sanguinalis), peanut (Arachis hypoagaea), pitted morningglory (Ipomoea lacunosa), purple nutsedge (Cyperus rotundus), sandbur (Cenchrus echinatus), smooth crabgrass (Digitaria ischaemum) and yellow nutsedge (Cyperus esculentus) were planted into greenhouse pots containing greenhouse planting medium. Each pot contained only one plant species. The test compound was dissolved in a non-phytotoxic solvent and applied preemergence and/or postemergence to the plants. Preemergence applications were made within one day of planting the seeds or plant parts. Postemergence applications were applied when the plants were in the two to four leaf stage (three to twenty cm). Test chemicals were dissolved in a non-phytotoxic solvent and applied preemergence and postemergence to the plants. Untreated control plants and treated plants were placed in the greenhouse and visually evaluated for injury at 13 to 21 days after herbicide application. […] A dash (-) response indicates no test result.

[2] = test system: annual bluegrass; assay type: in vivo, Poa annua; details: 0 to 100 scale
Excerpt: as §1

[3] = test system: bermudagrass; assay type: in vivo, Cynodon dactylon; details: 0 to 100 scale
Excerpt: as §1

[4] = test system: common purslane; assay type: in vivo, Portulaca oleracea; details: 0 to 100 scale
Excerpt: as §1

[5] = test system: common ragweed; assay type: in vivo, Ambrosia elatior; details: 0 to 100 scale
Excerpt: as §1

[6] = test system: dallisgrass; assay type: in vivo, Paspalum dilatatum; details: 0 to 100 scale
Excerpt: as §1

[7] = test system: goosegrass; assay type: in vivo, Eleusine indica; details: 0 to 100 scale
Excerpt: as §1

[8] = test system: guineagrass; assay type: in vivo, Panicum maximum; details: 0 to 100 scale
Excerpt: as §1

[9] = test system: itchgrass; assay type: in vivo, Rottboellia exaltata; details: 0 to 100 scale
Excerpt: as §1

[10] = test system: johnsongrass; assay type: in vivo, Sorghum halepense; details: 0 to 100 scale
Excerpt: as §1

[11] = test system: large crabgrass; assay type: in vivo, Digitaria sanguinalis; details: 0 to 100 scale
Excerpt: as §1

[12] = test system: peanut; assay type: in vivo, Arachis hypoagaea; details: 0 to 100 scale
Excerpt: as §1

[13] = test system: pitted morningglory; assay type: in vivo, Ipomoea lacunosa; details: 0 to 100 scale
Excerpt: as §1

[14] = test system: purple nutsedge; assay type: in vivo, Cyperus rotundus; details: Rate 125 g/ha, 0 to 100 scale
Excerpt: as §1

[15] = test system: sandbur; assay type: in vivo, Cenchrus echinatus; details: 0 to 100 scale
Excerpt: as §1

[16] = test system: smooth crabgrass; assay type: in vivo, Digitaria ischaemum; details: 0 to 100 scale
Excerpt: as §1

[17] = test system: yellow nutsedge; assay type: in vivo, Cyperus esculentus; details: Rate 125 g/ha, 0 to 100 scale
Excerpt: as §1

`Fc1cc(Cl)c(OC2CCCC2)cc1-c1nn2c(c1Cl)CCCC2` [Compound 24] was tested, and the “Plant response rating, Alfalfa Var.” value ([1]; POSTEMERGENCE, Rate 125 g/ha) was 0, the “Plant response rating, Alfalfa Var.” value ([1]; POSTEMERGENCE, Rate 250 g/ha) was 20 and the “Plant response rating, Alfalfa Var.” value ([1]; PREEMERGENCE, Rate 125 g/ha) was 0. For the same compound, the “Plant response rating, Alfalfa Var.” value ([1]; PREEMERGENCE, Rate 250 g/ha) was 0, the “Plant response rating, Ann Bluegrass” value ([2]; POSTEMERGENCE, Rate 125 g/ha) was 0 and the “Plant response rating, Ann Bluegrass” value ([2]; POSTEMERGENCE, Rate 250 g/ha) was 0. The “Plant response rating, Ann Bluegrass” value ([2]; PREEMERGENCE, Rate 125 g/ha) was 30, the “Plant response rating, Ann Bluegrass” value ([2]; PREEMERGENCE, Rate 250 g/ha) was 0 and the “Plant response rating, Bermudagrass” value ([3]; POSTEMERGENCE, Rate 125 g/ha) was 0. The “Plant response rating, Bermudagrass” value ([3]; POSTEMERGENCE, Rate 250 g/ha) was 0, the “Plant response rating, Bermudagrass” value ([3]; PREEMERGENCE, Rate 125 g/ha) was 30 and the “Plant response rating, Bermudagrass” value ([3]; PREEMERGENCE, Rate 250 g/ha) was 0. The “Plant response rating, Cmn Purslane” value ([4]; POSTEMERGENCE, Rate 125 g/ha) was 80, the “Plant response rating, Cmn Purslane” value ([4]; POSTEMERGENCE, Rate 250 g/ha) was 70 and the “Plant response rating, Cmn Purslane” value ([4]; PREEMERGENCE, Rate 125 g/ha) was 0. For the same compound, the “Plant response rating, Cmn Purslane” value ([4]; PREEMERGENCE, Rate 250 g/ha) was 0, the “Plant response rating, Cmn Ragweed” value ([5]; POSTEMERGENCE, Rate 125 g/ha) was 50 and the “Plant response rating, Cmn Ragweed” value ([5]; POSTEMERGENCE, Rate 250 g/ha) was 0. For the same compound, the “Plant response rating, Cmn Ragweed” value ([5]; PREEMERGENCE, Rate 125 g/ha) was 40, the “Plant response rating, Cmn Ragweed” value ([5]; PREEMERGENCE, Rate 250 g/ha) was 0 and the “Plant response rating, Dallisgrass” value ([6]; POSTEMERGENCE, Rate 125 g/ha) was 0. For the same compound, the “Plant response rating, Dallisgrass” value ([6]; POSTEMERGENCE, Rate 250 g/ha) was 0, the “Plant response rating, Dallisgrass” value ([6]; PREEMERGENCE, Rate 125 g/ha) was 20 and the “Plant response rating, Dallisgrass” value ([6]; PREEMERGENCE, Rate 250 g/ha) was 30. For the same compound, the “Plant response rating, Goosegrass” value ([7]; POSTEMERGENCE, Rate 125 g/ha) was 0, the “Plant response rating, Goosegrass” value ([7]; POSTEMERGENCE, Rate 250 g/ha) was 0 and the “Plant response rating, Goosegrass” value ([7]; PREEMERGENCE, Rate 125 g/ha) was 90. For the same compound, the “Plant response rating, Goosegrass” value ([7]; PREEMERGENCE, Rate 250 g/ha) was 40, the “Plant response rating, Guineagrass” value ([8]; POSTEMERGENCE, Rate 125 g/ha) was 0 and the “Plant response rating, Guineagrass” value ([8]; POSTEMERGENCE, Rate 250 g/ha) was 0. The “Plant response rating, Guineagrass” value ([8]; PREEMERGENCE, Rate 125 g/ha) was 0, the “Plant response rating, Guineagrass” value ([8]; PREEMERGENCE, Rate 250 g/ha) was 0 and the “Plant response rating, Itchgrass” value ([9]; POSTEMERGENCE, Rate 125 g/ha) was 0. For the same compound, the “Plant response rating, Itchgrass” value ([9]; POSTEMERGENCE, Rate 250 g/ha) was 0, the “Plant response rating, Itchgrass” value ([9]; PREEMERGENCE, Rate 125 g/ha) was 100 and the “Plant response rating, Itchgrass” value ([9]; PREEMERGENCE, Rate 250 g/ha) was 20. The “Plant response rating, Johnsongrass” value ([10]; POSTEMERGENCE, Rate 125 g/ha) was 0, the “Plant response rating, Johnsongrass” value ([10]; POSTEMERGENCE, Rate 250 g/ha) was 0 and the “Plant response rating, Johnsongrass” value ([10]; PREEMERGENCE, Rate 125 g/ha) was 0. For the same compound, the “Plant response rating, Johnsongrass” value ([10]; PREEMERGENCE, Rate 250 g/ha) was 0, the “Plant response rating, Large Crabgrass” value ([11]; POSTEMERGENCE, Rate 125 g/ha) was 0 and the “Plant response rating, Large Crabgrass” value ([11]; POSTEMERGENCE, Rate 250 g/ha) was 0. For the same compound, the “Plant response rating, Large Crabgrass” value ([11]; PREEMERGENCE, Rate 125 g/ha) was 80, the “Plant response rating, Large Crabgrass” value ([11]; PREEMERGENCE, Rate 250 g/ha) was 90 and the “Plant response rating, Peanuts” value ([12]; POSTEMERGENCE, Rate 125 g/ha) was 0. For the same compound, the “Plant response rating, Peanuts” value ([12]; POSTEMERGENCE, Rate 250 g/ha) was 0, the “Plant response rating, Peanuts” value ([12]; PREEMERGENCE, Rate 125 g/ha) was 0 and the “Plant response rating, Peanuts” value ([12]; PREEMERGENCE, Rate 250 g/ha) was 0. For the same compound, the “Plant response rating, Pit Morninglory” value ([13]; POSTEMERGENCE, Rate 125 g/ha) was 0, the “Plant response rating, Pit Morninglory” value ([13]; POSTEMERGENCE, Rate 250 g/ha) was 30 and the “Plant response rating, Pit Morninglory” value ([13]; PREEMERGENCE, Rate 125 g/ha) was 0. For the same compound, the “Plant response rating, Pit Morninglory” value ([13]; PREEMERGENCE, Rate 250 g/ha) was 50, the “Plant response rating, Purple Nutsedge” value ([14]; POSTEMERGENCE) was 0 and the “Plant response rating, Purple Nutsedge” value ([14]; PREEMERGENCE) was 0. The “Plant response rating, S. Sandbur” value ([15]; POSTEMERGENCE, Rate 125 g/ha) was 0, the “Plant response rating, S. Sandbur” value ([15]; POSTEMERGENCE, Rate 250 g/ha) was 0 and the “Plant response rating, S. Sandbur” value ([15]; PREEMERGENCE, Rate 125 g/ha) was 40. For the same compound, the “Plant response rating, S. Sandbur” value ([15]; PREEMERGENCE, Rate 250 g/ha) was 0, the “Plant response rating, Smooth Crabgras” value ([16]; POSTEMERGENCE, Rate 125 g/ha) was 0 and the “Plant response rating, Smooth Crabgras” value ([16]; POSTEMERGENCE, Rate 250 g/ha) was 0. For the same compound, the “Plant response rating, Smooth Crabgras” value ([16]; PREEMERGENCE, Rate 125 g/ha) was 0, the “Plant response rating, Smooth Crabgras” value ([16]; PREEMERGENCE, Rate 250 g/ha) was 0 and the “Plant response rating, Yellow Nutsedge” value ([17]; POSTEMERGENCE) was 0. For the same compound, the “Plant response rating, Yellow Nutsedge” value ([17]; PREEMERGENCE) was 0.

— US6358885B1, “Substituted phenylheterocyclic herbicides” (Mississippi State University, priority 1992, dated 2002)
